Data as given in ChEMBL document CHEMBL3351699, “Diarylthiazole: an antimycobacterial scaffold potentially targeting PrrB-PrrA two-component system” (J Med Chem, 2014).
Values after ≈ are worked out from the molar mass of the structure shown.

Columns and labels:
Type in all cases: functional
[1] = test system: Mycobacterium tuberculosis; assay: Antimicrobial activity against Mycobacterium tuberculosis H37Rv ATCC 27294 assessed as growth inhibition after 5 days by microdilution method; conditions: H37Rv ATCC 27294, 120 h
[2] = test system: Mycobacterium tuberculosis; assay: Antimicrobial activity against clinical isolate Mycobacterium tuberculosis H37Rv ATCC 27294 assessed as growth inhibition after 7 days by turbidometry; conditions: H37Rv ATCC 27294, 168 h
[3] = test system: Mycobacterium tuberculosis; assay: Antimicrobial activity against clinical isolate Mycobacterium tuberculosis ATCC25618 assessed as growth inhibition after 7 days by turbidometry; conditions: ATCC25618, 168 h
[4] = test system: Mycobacterium tuberculosis; assay: Antimicrobial activity against clinical isolate Mycobacterium tuberculosis Erdman assessed as growth inhibition after 7 days by turbidometry; conditions: 168 h
[5] = test system: Mycobacterium tuberculosis; assay: Antimicrobial activity against clinical isolate Mycobacterium tuberculosis Beijing assessed as growth inhibition after 7 days by turbidometry; conditions: 168 h
[6] = test system: Mycobacterium tuberculosis; assay: Antimicrobial activity against clinical isolate Mycobacterium tuberculosis Harlingen assessed as growth inhibition after 7 days by turbidometry; conditions: 168 h
[7] = test system: Mycobacterium tuberculosis; assay: Antimicrobial activity against clinical isolate Mycobacterium tuberculosis ATCC35811 assessed as growth inhibition after 7 days by turbidometry; conditions: ATCC35811, 168 h
[8] = test system: Mycobacterium tuberculosis; assay: Antimicrobial activity against clinical isolate Mycobacterium tuberculosis DKU76 assessed as growth inhibition after 7 days by turbidometry; conditions: DKU76, 168 h
[9] = test system: Mycobacterium tuberculosis; assay: Antimicrobial activity against clinical isolate Mycobacterium tuberculosis DKU97A assessed as growth inhibition after 7 days by turbidometry; conditions: 168 h
[10] = test system: Mycobacterium tuberculosis; assay: Antimicrobial activity against clinical isolate Mycobacterium tuberculosis DKU211 assessed as growth inhibition after 7 days by turbidometry; conditions: DKU211, 168 h
[11] = test system: Mycobacterium tuberculosis; assay: Antimicrobial activity against clinical isolate Mycobacterium tuberculosis DKU220 assessed as growth inhibition after 7 days by turbidometry; conditions: DKU220, 168 h
[12] = test system: Mycobacterium tuberculosis; assay: Antimicrobial activity against clinical isolate Mycobacterium tuberculosis JAL assessed as growth inhibition after 7 days by turbidometry; conditions: 168 h

SMILES	MIC80 [1]	other results
CCNc1cc(-c2nc(-c3ccc(Cl)cc3)cs2)ccn1	8 µg/mL (≈ 25.3 µM)	–
CCCc1cc(-c2nsc(-c3ccnc(CCC)c3)n2)ccn1	32 µg/mL (≈ 98.6 µM)	–
CCCc1cc(-c2nc(-c3ccc(Cl)cc3)c(C)s2)ccn1	4 µg/mL (≈ 12.2 µM)	–
Clc1ccc(-c2csc(-c3ccnc(N4CCOCC4)c3)n2)cc1	> 32 µg/mL	–
CCCc1cc(-c2nc(-c3cccc(OC)c3)cs2)ccn1	0.5 µg/mL (≈ 1.61 µM)	MIC80 [2]: 0.25 µg/mL (≈ 0.805 µM); MIC80 [3]: 0.25 µg/mL (≈ 0.805 µM); MIC80 [4]: 0.25 µg/mL (≈ 0.805 µM); MIC80 [5]: 0.13 µg/mL (≈ 0.419 µM); MIC80 [6]: 0.13 µg/mL (≈ 0.419 µM); MIC80 [7]: 0.5 µg/mL (≈ 1.61 µM); MIC80 [8]: 1 µg/mL (≈ 3.22 µM); MIC80 [9]: 0.5 µg/mL (≈ 1.61 µM); MIC80 [10]: 1 µg/mL (≈ 3.22 µM); MIC80 [11]: 1 µg/mL (≈ 3.22 µM); MIC80 [12]: 0.5 µg/mL (≈ 1.61 µM)
CCCc1cc(-c2nc(-c3ccc(OC)cc3)cs2)ccn1	1 µg/mL (≈ 3.22 µM)	–
Clc1ccc(-c2csc(-c3ccnc(OCC4CC4)c3)n2)cc1	2 µg/mL (≈ 5.83 µM)	–
CCCc1cc(-c2nc(-c3cncnc3)cs2)ccn1	4 µg/mL (≈ 14.2 µM)	–
CCCc1cc(-c2nc(-c3ccc(C(=O)O)cc3)cs2)ccn1	16 µg/mL (≈ 49.3 µM)	–
CCCc1cc(-c2ncc(-c3ccncc3)s2)ccn1	32 µg/mL (≈ 114 µM)	–
CCCc1cc(-c2nc(-c3ccc(C(=O)NS(C)(=O)=O)cc3)cs2)ccn1	32 µg/mL (≈ 79.7 µM)	–
CCCc1cc(-c2nc(-c3ccnc(OCCN(C)C)c3)cs2)ccn1	8 µg/mL (≈ 21.7 µM)	–
NNC(=O)c1ccncc1 [ISONIAZID]	–	MIC80 [2]: 0.06 µg/mL (≈ 0.438 µM); MIC80 [3]: 0.06 µg/mL (≈ 0.438 µM); MIC80 [4]: 0.06 µg/mL (≈ 0.438 µM); MIC80 [5]: 0.06 µg/mL (≈ 0.438 µM); MIC80 [6]: 0.06 µg/mL (≈ 0.438 µM); MIC80 [7]: 0.06 µg/mL (≈ 0.438 µM); MIC80 [8]: 0.06 µg/mL (≈ 0.438 µM); MIC80 [9]: 0.06 µg/mL (≈ 0.438 µM); MIC80 [10]: 0.06 µg/mL (≈ 0.438 µM); MIC80 [11]: 0.06 µg/mL (≈ 0.438 µM); MIC80 [12]: 0.06 µg/mL (≈ 0.438 µM)
CCCc1cc(-c2ncc(-c3ccnc(OC)c3)s2)ccn1	32 µg/mL (≈ 103 µM)	–
CCCc1cc(-c2nc(-c3ccc(Cl)cc3)c(C(N)=O)s2)ccn1	> 32 µg/mL	–
CCCc1cc(-c2nc(-c3cccc(C(F)(F)F)c3)cs2)ccn1	0.5 µg/mL (≈ 1.44 µM)	–
CCCc1cc(-c2nc(-c3ccnc(OC)c3)cs2)ccn1	0.2 µg/mL (≈ 0.642 µM)	–
CCCc1cc(-c2nc(-c3ccnc(O[C@H]4CCOC4)c3)cs2)ccn1	2 µg/mL (≈ 5.44 µM)	–
CCCc1cc(-c2nc(-c3ccc(OCCOC)cc3)cs2)ccn1	1 µg/mL (≈ 2.82 µM)	–
CCCc1cc(-c2nc(-c3ccccc3C(F)(F)F)cs2)ccn1	> 32 µg/mL	–
CCCc1cc(-c2nc(-c3ccc(Cl)cc3)c(C(=O)OCC)s2)ccn1	> 32 µg/mL	–
CC(=O)N1CCC(c2nc(-c3ccc(Cl)cc3)cs2)CC1	> 32 µg/mL	–
Clc1ccc(-c2csc(-c3ccnc(C4CC4)c3)n2)cc1	4 µg/mL (≈ 12.8 µM)	–
CCCc1cc(-c2nc(-c3ccccc3OC)cs2)ccn1	1 µg/mL (≈ 3.22 µM)	–
